Here are results for 37 compounds from patent EP0844825B1, “INSECTICIDAL N-(SUBSTITUTED ARYLMETHYL)-4- BIS(SUBSTITUTED PHENYL OR PYRIDYL)METHYL]PIPERIDINES” (FMC CORPORATION, priority 1995, dated 1996).

In the assay the test system is tobacco budworm (Heliothis virescens [Fabricius]). Kind of assay: Diet test: test chemical incorporated into artificial diet of tobacco budworm larvae, 5-day exposure. It counts as in vivo. Conditions: for IC50 / LC50 / mortality at 100 µM / pest or weed control at 100 µM: Heliothis virescens, 120 h; for IC50: negative log of the concentration that provides 50% growth inhibition, by linear regression, read-out: pl50 (converted); for IC50 / LC50 / pest or weed control at 100 µM / Percent Growth Inhibition: 5 days, * = average of more than one test; for LC50: negative log of the concentration that provides 50% mortality, read-out: pLC50 (converted); for mortality at 100 µM / pest or weed control at 100 µM: feed or water; for mortality at 100 µM: read-out: Percent Mortality; for pest or weed control at 100 µM / Percent Growth Inhibition: rate of application 4 (negative log of molar concentration in the diet), second instar larvae, 25°C; for pest or weed control at 100 µM: read-out: Percent Growth Inhibition. The procedure: Candidate insecticides were incorporated into an artificial diet for evaluation of insecticidal activity against the tobacco budworm (Heliothis virescens [Fabricius]) in the following manner. Stock solutions of test chemical in dimethyl sulfoxide, ranging from […], were prepared for each rate of application. One hundred microliters of each of the stock solutions was manually stirred into 50 mL of a molten (65-70°C) wheat germ-based artificial diet. The 50 mL of molten diet containing the test chemical was poured evenly into twenty wells in the outer two rows on each side of a twenty-five well, five row plastic tray. (Each well in the tray was about 1 cm in depth, with an opening of 3 cm by 4 cm at the lip.) Molten diet containing only dimethyl sulfoxide at the levels used in the test chemical-treated diet was poured into the five wells in the third (center) row of the tray. Each tray therefore contained one test chemical at a single rate of application, together with an untreated control. The rates of application, expressed as the negative log of the molar concentration, and the corresponding concentrations of the stock solution prepared for each rate are shown below:
Single second instar tobacco budworm larvae, selected at a stage of growth at which they uniformly weigh about 5 mg each, were placed in each well. Upon completion of infestation, a sheet of clear plastic was heat-sealed over the top of the tray by use of a common household flat.iron. The trays were held at 25°C at 60% relative humidity for five days in a growth chamber. Lighting was set at 14 hours of light and 10 hours of darkness. After the 5-day exposure period, mortality counts were taken, and the surviving insects were weighed. From the weights of the surviving insects that fed on the treated diet as compared to those insects that fed on the untreated diet, the percent growth inhibition caused by each test chemical was determined. […] Also, where possible, the negative log of the concentration of the test chemical that provided 50% mortality (pLC50) was determined.

`COc1ccc(CCN2CCC(C(O)(c3ccc(OC(F)(F)F)cc3)c3ccc(OC(F)(F)F)cc3)CC2)cc1` [Compound 2, N-[2-(4-methoxyphenyl)ethyl]-4-[bis(4-trifluoromethoxyphenyl)hydroxymethyl]piperidine]: the IC50 is 2.51 µM, the LC50 was above 100 µM, the mortality (commonly the percentage killed) at 100 µM was found to be 25% and the pest or weed control at 100 µM is 98%.
As to `CC(=O)Nc1ccc(CN2CCC(C(O)(c3ccc(OC(F)(F)F)cc3)c3ccc(OC(F)(F)F)cc3)CC2)cc1` [Compound 3, N-[4-(methylcarbonylamino)phenylmethyl]-4-[bis(4-trifluoromethoxyphenyl)hydroxymethyl]piperidine], the IC50 was 20 µM, the mortality at 100 µM is 0% and the pest or weed control at 100 µM stood at 95%.
Regarding `Cn1ccc(-c2ccc(CN3CCC(C(O)(c4ccc(OC(F)(F)F)cc4)c4ccc(OC(F)(F)F)cc4)CC3)cc2)c1` [Compound 4], the mortality at 100 µM was 100%.
The same measure, in the same setting: under `Cc1cc(C)n(-c2ccc(CN3CCC(C(O)(c4ccc(OC(F)(F)F)cc4)c4ccc(OC(F)(F)F)cc4)CC3)cc2)n1` [Compound 5] stands 100%.
On the same count and under the same terms, under `Cc1noc(-c2ccc(CN3CCC(C(O)(c4ccc(OC(F)(F)F)cc4)c4ccc(OC(F)(F)F)cc4)CC3)cc2)n1` [Compound 6] stands 100%.
Take `Cn1nnnc1-c1ccc(CN2CCC(C(O)(c3ccc(OC(F)(F)F)cc3)c3ccc(OC(F)(F)F)cc3)CC2)cc1` [Compound 8, N-[4-(1-methyltetrazol-5-yl)phenylmethyl]-4-[bis(4-trifluoromethoxyphenyl)hydroxymethyl]piperidine]: the IC50 was 31.6 µM, the mortality at 100 µM is 0% and the pest or weed control at 100 µM was 79%.
Regarding `Cn1ncn(-c2ccc(CN3CCC(C(O)(c4ccc(C(F)(F)F)cc4)c4ccc(C(F)(F)F)cc4)CC3)cc2)c1=O` [Compound 12, N-[4-(4,5-dihydro-1-methyl-5-oxo-1H-1,2,4-triazol-4-yl)phenylmethyl]-4-[bis(4-trifluoromethylphenyl)hydroxymethyl]piperidine], the IC50 is 3.98 µM, the LC50 was above 100 µM, the mortality at 100 µM came to 35% and the pest or weed control at 100 µM was 98%.
Turning to `OC(c1ccc(OC(F)(F)F)cc1)(c1ccc(OC(F)(F)F)cc1)C1CCN(Cc2ccc(-c3csnn3)cc2)CC1` [Compound 14], the IC50 was 3.16 µM, the LC50 was 31.6 µM, the mortality at 100 µM was determined as 100% and the “Percent Growth Inhibition” value is given as 99%.
Consider `Cn1nnc(-c2ccc(C[N+]3([O-])CCC(C(O)(c4ccc(OC(F)(F)F)cc4)c4ccc(OC(F)(F)F)cc4)CC3)cc2)n1` (centres unmarked) [Compound 15], for which the mortality at 100 µM stood at 100%.
The same measure, in the same setting: under `CC(C)c1cnc(-c2ccc(CN3CCC(C(O)(c4ccc(C(F)(F)F)cc4)c4ccc(C(F)(F)F)cc4)CC3)cc2)o1` [Compound 19] stands 90%.
For the compound `O=C1OCCN1c1ccc(CN2CCC(C(O)(c3ccc(C(F)(F)F)cc3)c3ccc(C(F)(F)F)cc3)CC2)cc1` [Compound 20], the mortality at 100 µM is 10%.
On the same count and under the same terms, under `O=C1OCCN1c1ccc(C[N+]2([O-])CCC(C(O)(c3ccc(C(F)(F)F)cc3)c3ccc(C(F)(F)F)cc3)CC2)cc1` (centres unmarked) [Compound 21] stands 10%; under `CC1CN(c2ccc(CN3CCC(C(O)(c4ccc(C(F)(F)F)cc4)c4ccc(C(F)(F)F)cc4)CC3)cc2)C(=O)O1` (centres unmarked) [Compound 22], 35%.
Still for that read-out and setting: under `CC1CN(c2ccc(C[N+]3([O-])CCC(C(O)(c4ccc(C(F)(F)F)cc4)c4ccc(C(F)(F)F)cc4)CC3)cc2)C(=O)O1` (centres unmarked) [Compound 23] stands 65%.
As for `CC1CN(C(=O)c2ccc(CN3CCC(C(O)(c4ccc(C(F)(F)F)cc4)c4ccc(C(F)(F)F)cc4)CC3)cc2)C(=O)O1` (centres unmarked) [Compound 24], the IC50 was 31.6 µM, the LC50 was above 316 µM, the mortality at 100 µM worked out at 0% and the “Percent Growth Inhibition” value amounted to 86%.
For the compound `Cn1cnc(-c2ccc(CN3CCC(C(O)(c4ccc(C(F)(F)F)cc4)c4ccc(C(F)(F)F)cc4)CC3)cc2)n1` [Compound 27], the mortality at 100 µM stood at 100%.
On the same count and under the same terms, under `Cn1cnc(-c2ccc(C[N+]3([O-])CCC(C(O)(c4ccc(C(F)(F)F)cc4)c4ccc(C(F)(F)F)cc4)CC3)cc2)n1` (centres unmarked) [Compound 28] stands 100%; under `OC(c1ccc(C(F)(F)F)cc1)(c1ccc(C(F)(F)F)cc1)C1CCN(Cc2ccc(Oc3nsnc3Cl)cc2)CC1` [Compound 29], 60%.
Still for that read-out and setting: in the case of `[O-][N+]1(Cc2ccc(Oc3nsnc3Cl)cc2)CCC(C(O)(c2ccc(C(F)(F)F)cc2)c2ccc(C(F)(F)F)cc2)CC1` (centres unmarked) [Compound 30] it was 40%.
The same measure, in the same setting: in the case of `CC(C)n1nnc(-c2ccc(CN3CCC(C(O)(c4ccc(C(F)(F)F)cc4)c4ccc(C(F)(F)F)cc4)CC3)cc2)n1` [Compound 35] it was 100%.
For `CC(C)n1nnc(-c2ccc(C[N+]3([O-])CCC(C(O)(c4ccc(C(F)(F)F)cc4)c4ccc(C(F)(F)F)cc4)CC3)cc2)n1` (centres unmarked) [Compound 36], the mortality at 100 µM came to 100%.
On the same count and under the same terms, under `CC(C)(C)n1nnc(-c2ccc(CN3CCC(C(O)(c4ccc(C(F)(F)F)cc4)c4ccc(C(F)(F)F)cc4)CC3)cc2)n1` [Compound 37] stands 100%.
As for `OC(c1ccc(C(F)(F)F)cc1)(c1ccc(C(F)(F)F)cc1)C1CCN(Cc2ccc(-c3nnn(C(F)F)n3)cc2)CC1` [Compound 38], the IC50 was 0.631 µM, the LC50 was 2.51 µM, the mortality at 100 µM amounted to 100% and the “Percent Growth Inhibition” value is given as 100%.
For `[O-][N+]1(Cc2ccc(-c3nnn(C(F)F)n3)cc2)CCC(C(O)(c2ccc(C(F)(F)F)cc2)c2ccc(C(F)(F)F)cc2)CC1` (centres unmarked) [Compound 39], the mortality at 100 µM stood at 100%.
On to `OC(c1ccc(C(F)(F)F)cc1)(c1ccc(C(F)(F)F)cc1)C1CCN(Cc2ccc(-c3nnn(CCCF)n3)cc2)CC1` [Compound 40], for which the IC50 was 0.631 µM, the LC50 was 3.98 µM, the mortality at 100 µM came out at 100% and the “Percent Growth Inhibition” value worked out at 100%.
Consider `COCn1nnc(-c2ccc(CN3CCC(C(O)(c4ccc(C(F)(F)F)cc4)c4ccc(C(F)(F)F)cc4)CC3)cc2)n1` [Compound 41], for which the mortality at 100 µM stood at 100%.
As to `COCn1nnc(-c2ccc(C[N+]3([O-])CCC(C(O)(c4ccc(C(F)(F)F)cc4)c4ccc(C(F)(F)F)cc4)CC3)cc2)n1` (centres unmarked) [Compound 42], the mortality at 100 µM worked out at 100%.
On to `OC(c1ccc(C(F)(F)F)cc1)(c1ccc(C(F)(F)F)cc1)C1CCN(Cc2ccc(-c3ccccn3)cc2)CC1` [Compound 43], for which the IC50 is at most 0.316 µM, the LC50 was 3.16 µM, the mortality at 100 µM turned out to be 100% and the “Percent Growth Inhibition” value turned out to be 100%.
Consider `[O-][N+]1(Cc2ccc(-c3ccccn3)cc2)CCC(C(O)(c2ccc(C(F)(F)F)cc2)c2ccc(C(F)(F)F)cc2)CC1` (centres unmarked) [Compound 44], for which the mortality at 100 µM amounted to 100%.
Same read-out and setting: under `[O-][n+]1ccccc1-c1ccc(CN2CCC(C(O)(c3ccc(C(F)(F)F)cc3)c3ccc(C(F)(F)F)cc3)CC2)cc1` [Compound 45] stands 100%; under `[O-][n+]1ccccc1-c1ccc(C[N+]2([O-])CCC(C(O)(c3ccc(C(F)(F)F)cc3)c3ccc(C(F)(F)F)cc3)CC2)cc1` (centres unmarked) [Compound 46], 100%.
For the compound `OC(c1ccc(C(F)(F)F)cc1)(c1ccc(C(F)(F)F)cc1)C1CCN(Cc2ccc(-c3ccc(Cl)cn3)cc2)CC1` [Compound 47], the IC50 is 31.6 µM, the LC50 is 31.6 µM, the mortality at 100 µM came to 100% and the “Percent Growth Inhibition” value is given as 100%.
For `[O-][N+]1(Cc2ccc(-c3ccc(Cl)cn3)cc2)CCC(C(O)(c2ccc(C(F)(F)F)cc2)c2ccc(C(F)(F)F)cc2)CC1` (centres unmarked) [Compound 48], the mortality at 100 µM was 85%.
The same measure, in the same setting: under `Cc1cccc(-c2ccc(CN3CCC(C(O)(c4ccc(C(F)(F)F)cc4)c4ccc(C(F)(F)F)cc4)CC3)cc2)n1` [Compound 49] stands 100%; under `Cc1cccc(-c2ccc(C[N+]3([O-])CCC(C(O)(c4ccc(C(F)(F)F)cc4)c4ccc(C(F)(F)F)cc4)CC3)cc2)n1` (centres unmarked) [Compound 50], 100%.
The same measure, in the same setting: under `Cc1ccc(-c2ccc(CN3CCC(C(O)(c4ccc(C(F)(F)F)cc4)c4ccc(C(F)(F)F)cc4)CC3)cc2)nc1` [Compound 51] stands 100%; under `OC(c1ccc(C(F)(F)F)cc1)(c1ccc(C(F)(F)F)cc1)C1CCN(Cc2ccc(Oc3ccccn3)cc2)CC1` [Compound 53], 100%.
